# Measured values: patent US4226878A, “Imidazole derivative” (Kissei Pharmaceutical Co., Ltd., priority 1978, dated 1980)
# Structures can show the parent of a compound that is named as a salt.
# Columns and labels:
# thromboxane synthetase = conditions: literature reports; cited from earlier work
# [1] = target: T1, thromboxane synthetase from rabbit platelet microsomes (Oryctolagus cuniculus, UniProt G1TAZ9); experiment: inhibition of thromboxane synthetase from rabbit platelet microsomes (conversion of prostaglandin H2 into thromboxane B2); format: biochemical; conditions: read-out: molar concentration producing a 50% inhibition of thromboxane synthetase
# T1 construct: thromboxane synthetase from rabbit platelet microsomes; from tissue; host or cells: rabbit platelet microsomes
# T1 sequence (G1TAZ9 1-530): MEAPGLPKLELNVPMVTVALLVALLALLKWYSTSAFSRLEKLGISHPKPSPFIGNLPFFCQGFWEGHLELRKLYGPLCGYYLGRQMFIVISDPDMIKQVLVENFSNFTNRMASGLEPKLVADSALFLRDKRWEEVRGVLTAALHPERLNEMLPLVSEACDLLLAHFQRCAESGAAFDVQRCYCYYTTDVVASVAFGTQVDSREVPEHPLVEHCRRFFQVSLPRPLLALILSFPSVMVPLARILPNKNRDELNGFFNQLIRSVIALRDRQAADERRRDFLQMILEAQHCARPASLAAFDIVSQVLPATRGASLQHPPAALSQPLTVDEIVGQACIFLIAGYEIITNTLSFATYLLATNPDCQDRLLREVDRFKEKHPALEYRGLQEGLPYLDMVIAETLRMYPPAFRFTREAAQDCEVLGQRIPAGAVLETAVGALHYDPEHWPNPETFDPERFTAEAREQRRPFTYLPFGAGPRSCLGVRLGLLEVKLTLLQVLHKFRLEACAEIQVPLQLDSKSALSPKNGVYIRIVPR
# Excerpt: [Nature, Vol. 261, No. 6, 17-, (1976)].
# The inhibitory action of the imidazole derivatives of this invention can be confirmed by determination of thromboxane B2 produced by thromboxane synthetase from prostaglandin H2 via thromboxane A2.
IC50 [1] [nM],SMILES,"inhibitory effect on thromboxane synthetase (in words, prior art) (thromboxane synthetase)"
–,CC(C)c1ccccc1-n1ccnc1 [1-(2-isopropylphenyl)imidazole],strong inhibitory effect
–,COC(=O)CCCCCCn1ccnc1 [1-(6-methoxycarbonylhexyl) imidazole],inhibitory effect
–,c1ccc(Cn2ccnc2)cc1 [1-benzylimidazole],strong inhibitory effect
–,CCCCCCCCCCn1ccnc1 [1-decylimidazole],strong inhibitory effect
–,CCCCCCCCCn1ccnc1 [1-nonylimidazole],strong inhibitory effect
4,CC(=Cc1ccc(Cn2ccnc2)cc1)C(=O)O [P-(1-imidazolylmethyl)-α-methylcinnamic acid hydrochloric acid salt],–
–,c1c[nH]cn1 [imidazole],very weak inhibitory effect
